Measured values published in publication PMC8533299, “Synthesis, In Silico Study, and Anti-Cancer Activity of Thiosemicarbazone Derivatives” (Biomedicines, 2021).
≈ marks a conversion by molar mass, not a printed value.

System: MCF-7 (Human breast cancer)
Assay: MTT test on MCF-7 cells
Type: cell-based
Conditions: MCF7, till 48 h
Description: The in vitro anticancer activities of the synthesized compounds were conducted using different cancerous and non-cancerous cell lines viz B16-F0 (Mouse melanoma), mouse Ehrlich Ascites Carcinoma (EAC), MCF-7 (Human breast cancer), MCF-10A (Human breast epithelial cells), and NIH/3T3 (Mouse fibroblast cells). All cell lines were procured from the National Centre for Cell Science, Pune, India. The procured cells were cultured in a six-well culture plate with Dulbecco’s Modified Eagle’s Medium (DMEM) supplemented with 10% fetal bovine serum in a humid CO2 incubator with 5% carbon dioxide at 37 °C.
The anti-cancer effect and cytotoxicity of both 3-MBTSc and 4-NBTSc compounds were evaluated against different cancerous (MCF-7, EAC, B16-F0 cells) and noncancerous cells (MCF-10A, NIH-3T3 cells) using MTT test. In brief, the stock solutions of both the tested compounds were prepared by dissolving 1 mg of each compound in 1 mL of DMSO separately. Then, four different concentrations (5, 10, 12, and 20 µg/mL) of both compounds were used during the test along with the negative control. Also, 10 μg/mL of doxorubicin (Dox) was used as the positive control during the experiment. Both untreated and treated cells were incubated for next 24 and 48 h. Then, all the steps during the whole experiment were carried out by our earlier reported procedure. Later, the absorbance values were measured by an ELISA reader (Biorad, Hercules, CA, USA) at 570 nm wavelength using secondary wavelength as a reference at 620 nm and the percentages of cell viability was calculated using the following formula [59, 60, 61]. Cell viability (%)= Mean absorbance of treated cells/Mean absorbance of untreated cells × 100
Based on the cell viability data, the IC50 values of both compounds were calculated on different cancer cells by plotting their corresponding dose-responsive graphs.
The obtained data were statistically analyzed. The descriptive analysis was done and the IC50 values were calculated by fitting the sigmoidal dose responsive graph using GraphPad Prism (GraphPad Software, Inc., La Jolla, CA, USA). […]

IC50: 3.162 ± 0.018 µg/mL (≈ 5.82 µM)
SMILES: COc1cccc2c1C(=O)c1c(O)c3c(c(O)c1C2=O)C[C@@](O)(C(=O)CO)C[C@@H]3O[C@H]1C[C@H](N)[C@H](O)[C@H](C)O1 [DOX, doxorubicin, reference compound]
